{
  "source": "paper PMC8577775",
  "about": "“Small molecule allosteric inhibitors of RORγt block Th17-dependent inflammation and associated gene expression in vivo” (PLoS ONE, 2021)",
  "tested_on": "Bclxl expression in the thymus",
  "test": "Bclxl expression in thymus after oral dosing (QPCR)",
  "format": "in vivo, mouse",
  "settings": "100 mg/kg PO, C57Bl/6 female mice; S5 Fig",
  "procedure": "Supplementary file pone.0248034.s009.tif: S5 Fig RORγt inhibitors reduce Bclxl expression in thymus of rodents. C57Bl/6 female mice were dosed PO with 100 mg/kg Compound 1, 2 or 3. Thymic tissues were collected from separate cohorts at 2, 8, 16 and 24 hours post-dose (n = 3 mice/timepoint). RNA was extracted from thymic tissues and Bclxl expression measured by QPCR. […] Time zero (‘0’) used as normalization timepoint and set to 1.0 RQ and mean set at 100% for % inhibition calculation. One-way ANOVA with Bonferroni correction for multiple comparisons used for statistical significance calculations. (TIF) Click here for additional data file.",
  "data": [
    {"smiles": "O=C(O)[C@@H]1CCC(c2nn(C(=O)c3c(Cl)cccc3C(F)(F)F)c3cccc(F)c23)=C[C@H]1O", "note": "[Compound 3]", "values": [
      {"measurement": "Bclxl expression in the thymus", "result": "modulation of Bclxl expression in the thymus"}
    ]}
  ]
}
